Results: ChEMBL document CHEMBL1770066, “A green expedient synthesis of pyridopyrimidine-2-thiones and their antitubercular activity” (2011)
In brackets after ≈: the same amount, converted by molar mass.

How the values were obtained:
Format in all cases: functional
[1] = tested on: Mycobacterium tuberculosis; test: Antituberculosis activity against Mycobacterium tuberculosis H37Rv by agar dilution method
[2] = tested on: Mycobacterium tuberculosis; test: Ratio of MIC for ethambutol to compound for Mycobacterium tuberculosis H37Rv
[3] = tested on: Mycobacterium tuberculosis; test: Ratio of MIC for ciprofloxacin to compound for Mycobacterium tuberculosis H37Rv

Row | SMILES | MIC [1] [µM] | Ratio [2] | Ratio [3]
1 | CN1CC2=C(NC(=S)NC2c2ccc(N(C)C)cc2)/C(=C/c2ccc(N(C)C)cc2)C1 (stereo not given) | 57.7 (≈ 25 µg/mL) | – | –
2 | COc1ccc(OC)c(/C=C2\CN(C)CC3=C2NC(=S)NC3c2cc(OC)ccc2OC)c1 (stereo not given) | 53.5 (≈ 25 µg/mL) | – | –
3 | COc1ccc(/C=C2\CN(C)CC3=C2NC(=S)NC3c2ccc(OC)c(OC)c2)cc1OC (stereo not given) | 53.5 (≈ 25 µg/mL) | – | –
4 | Cc1ccccc1/C=C1\CN(C)CC2=C1NC(=S)NC2c1ccccc1C (stereo not given) | 66.6 (≈ 25 µg/mL) | – | –
5 | CC(C)c1ccc(/C=C2\CN(C)CC3=C2NC(=S)NC3c2ccc(C(C)C)cc2)cc1 (stereo not given) | 57.9 (≈ 25 µg/mL) | – | –
6 | CN1CC2=C(N=C(S)NC2c2ccccc2)/C(=C/c2ccccc2)C1 (stereo not given) | 71.9 (≈ 25 µg/mL) | – | –
7 | CN1CC2=C(NC(=S)NC2c2cccc3ccccc23)/C(=C/c2cccc3ccccc23)C1 (stereo not given) | 55.9 (≈ 25 µg/mL) | – | –
8 | CN1CC2=C(N=C(S)NC2c2ccccc2Cl)/C(=C/c2ccccc2Cl)C1 (stereo not given) | 30 (≈ 12.5 µg/mL) | – | –
9 | CN1CC2=C(NC(=S)NC2c2ccc(Cl)cc2Cl)/C(=C/c2ccc(Cl)cc2Cl)C1 (stereo not given) | 12.9 (≈ 6.26 µg/mL) | – | –
10 | CN1CC2=C(N=C(S)NC2c2ccc(Cl)cc2)/C(=C/c2ccc(Cl)cc2)C1 (stereo not given) | 30 (≈ 12.5 µg/mL) | – | –
11 | CN1CC2=C(NC(=S)NC2c2cccc(F)c2)/C(=C/c2cccc(F)c2)C1 (stereo not given) | 16.3 (≈ 6.25 µg/mL) | – | –
12 | CN1CC2=C(NC(=S)NC2c2ccc(F)cc2)/C(=C/c2ccc(F)cc2)C1 (stereo not given) | 32.6 (≈ 12.5 µg/mL) | – | –
13 | CN1CC2=C(NC(=S)NC2c2cccc(Br)c2)/C(=C/c2cccc(Br)c2)C1 (stereo not given) | 24.7 (≈ 12.5 µg/mL) | – | –
14 | COc1ccccc1/C=C1\CN(C)CC2=C1NC(=S)NC2c1ccccc1OC (stereo not given) | 61.4 (≈ 25 µg/mL) | – | –
15 | CN1CC2=C(NC(=S)NC2c2c(Cl)cccc2Cl)/C(=C/c2c(Cl)cccc2Cl)C1 (stereo not given) | 5.6 (≈ 2.72 µg/mL) | 1.4 | –
16 | CN1CC2=C(NC(=S)NC2c2ccc(Br)cc2)/C(=C/c2ccc(Br)cc2)C1 (stereo not given) | 24.7 (≈ 12.5 µg/mL) | – | –
17 | CN1CC2=C(NC(=S)NC2c2ccc3ccccc3c2)/C(=C/c2ccc3ccccc3c2)C1 (stereo not given) | 55.9 (≈ 25 µg/mL) | – | –
18 | CN(C)c1ccc(/C=C2\CN(Cc3ccccc3)CC3=C2NC(=S)NC3c2ccc(N(C)C)cc2)cc1 (stereo not given) | 49.1 (≈ 25 µg/mL) | – | –
19 | COc1ccc(OC)c(/C=C2\CN(Cc3ccccc3)CC3=C2NC(=S)NC3c2cc(OC)ccc2OC)c1 (stereo not given) | 46 (≈ 25 µg/mL) | – | –
20 | COc1ccc(/C=C2\CN(Cc3ccccc3)CC3=C2NC(=S)NC3c2ccc(OC)c(OC)c2)cc1OC (stereo not given) | 46 (≈ 25 µg/mL) | – | –

Row | SMILES | MIC [1] [µM] | Ratio [2] | Ratio [3]
21 | COc1ccc(/C=C2\CN(Cc3ccccc3)CC3=C2NC(=S)NC3c2ccc(OC)cc2)cc1 (stereo not given) | 51.7 (≈ 25 µg/mL) | – | –
22 | Cc1ccccc1/C=C1\CN(Cc2ccccc2)CC2=C1NC(=S)NC2c1ccccc1C (stereo not given) | 55.4 (≈ 25 µg/mL) | – | –
23 | CC(C)c1ccc(/C=C2\CN(Cc3ccccc3)CC3=C2NC(=S)NC3c2ccc(C(C)C)cc2)cc1 (stereo not given) | 24.6 (≈ 12.5 µg/mL) | – | –
24 | Cc1ccc(/C=C2\CN(Cc3ccccc3)CC3=C2NC(=S)NC3c2ccc(C)cc2)cc1 (stereo not given) | 55.4 (≈ 25 µg/mL) | – | –
25 | S=C1NC2=C(CN(Cc3ccccc3)C/C2=C\c2ccccc2)C(c2ccccc2)N1 (stereo not given) | 59 (≈ 25 µg/mL) | – | –
26 | S=C1NC2=C(CN(Cc3ccccc3)C/C2=C\c2cccc3ccccc23)C(c2cccc3ccccc23)N1 (stereo not given) | 47.7 (≈ 25 µg/mL) | – | –
27 | S=C1NC2=C(CN(Cc3ccccc3)C/C2=C\c2ccccc2Cl)C(c2ccccc2Cl)N1 (stereo not given) | 25.4 (≈ 12.5 µg/mL) | – | –
28 | S=C1NC2=C(CN(Cc3ccccc3)C/C2=C\c2ccc(Cl)cc2Cl)C(c2ccc(Cl)cc2Cl)N1 (stereo not given) | 2.8 (≈ 1.57 µg/mL) | 2.7 | 1.7
29 | S=C1NC2=C(CN(Cc3ccccc3)C/C2=C\c2ccc(Cl)cc2)C(c2ccc(Cl)cc2)N1 (stereo not given) | 25.4 (≈ 12.5 µg/mL) | – | –
30 | Fc1cccc(/C=C2\CN(Cc3ccccc3)CC3=C2NC(=S)NC3c2cccc(F)c2)c1 (stereo not given) | 6.8 (≈ 3.13 µg/mL) | 1.1 | –
31 | Fc1ccc(/C=C2\CN(Cc3ccccc3)CC3=C2NC(=S)NC3c2ccc(F)cc2)cc1 (stereo not given) | 3.4 (≈ 1.56 µg/mL) | 2.2 | 1.4
32 | S=C1NC2=C(CN(Cc3ccccc3)C/C2=C\c2ccccc2Br)C(c2ccccc2Br)N1 (stereo not given) | 21.5 (≈ 12.5 µg/mL) | – | –
33 | COc1cc(/C=C2\CN(Cc3ccccc3)CC3=C2NC(=S)NC3c2cc(OC)c(OC)c(OC)c2)cc(OC)c1OC (stereo not given) | 41.4 (≈ 25 µg/mL) | – | –
34 | Cc1ccc(/C=C2\CN(C)CC3=C2N=C(S)NC3c2ccc(C)cc2)cc1 (stereo not given) | 66.6 (≈ 25 µg/mL) | – | –
35 | CN1CC2=C(N=C(S)NC2c2cccs2)/C(=C/c2cccs2)C1 (stereo not given) | 69.5 (≈ 25 µg/mL) | – | –
36 | COc1ccc(/C=C2\CN(C)CC3=C2N=C(S)NC3c2ccc(OC)cc2)cc1 (stereo not given) | 61.4 (≈ 25 µg/mL) | – | –
37 | CC[C@@H](CO)NCCN[C@@H](CC)CO [ETHAMBUTOL] | 7.6 (≈ 1.55 µg/mL) | – | –
38 | NNC(=O)c1ccncc1 [ISONIAZID] | 0.4 (≈ 0.0549 µg/mL) | – | –
39 | CO[C@H]1/C=C/O[C@@]2(C)Oc3c(C)c(O)c4c(O)c(c(/C=N/N5CCN(C)CC5)c(O)c4c3C2=O)NC(=O)/C(C)=C\C=C\[C@H](C)[C@H](O)[C@@H](C)[C@@H](O)[C@@H](C)[C@H](OC(C)=O)[C@@H]1C [RIFAMPIN] | 0.1 (≈ 0.0823 µg/mL) | – | –
